1 molecule from BindingDB's records for doi:10.1021/jm0613323 (Burnham Institute For Medical Research, 2007) can be followed below.

The assay concerns the target Receptor-type tyrosine-protein phosphatase C, CD45/PTPRC (Homo sapiens) (UniProt P08575). The experiment in a line: Inhibition of CD45 PTP by fluorescence spectrometry.

Receptor-type tyrosine-protein phosphatase C, CD45/PTPRC (Homo sapiens), sequence (P08575 whole entry, looked up): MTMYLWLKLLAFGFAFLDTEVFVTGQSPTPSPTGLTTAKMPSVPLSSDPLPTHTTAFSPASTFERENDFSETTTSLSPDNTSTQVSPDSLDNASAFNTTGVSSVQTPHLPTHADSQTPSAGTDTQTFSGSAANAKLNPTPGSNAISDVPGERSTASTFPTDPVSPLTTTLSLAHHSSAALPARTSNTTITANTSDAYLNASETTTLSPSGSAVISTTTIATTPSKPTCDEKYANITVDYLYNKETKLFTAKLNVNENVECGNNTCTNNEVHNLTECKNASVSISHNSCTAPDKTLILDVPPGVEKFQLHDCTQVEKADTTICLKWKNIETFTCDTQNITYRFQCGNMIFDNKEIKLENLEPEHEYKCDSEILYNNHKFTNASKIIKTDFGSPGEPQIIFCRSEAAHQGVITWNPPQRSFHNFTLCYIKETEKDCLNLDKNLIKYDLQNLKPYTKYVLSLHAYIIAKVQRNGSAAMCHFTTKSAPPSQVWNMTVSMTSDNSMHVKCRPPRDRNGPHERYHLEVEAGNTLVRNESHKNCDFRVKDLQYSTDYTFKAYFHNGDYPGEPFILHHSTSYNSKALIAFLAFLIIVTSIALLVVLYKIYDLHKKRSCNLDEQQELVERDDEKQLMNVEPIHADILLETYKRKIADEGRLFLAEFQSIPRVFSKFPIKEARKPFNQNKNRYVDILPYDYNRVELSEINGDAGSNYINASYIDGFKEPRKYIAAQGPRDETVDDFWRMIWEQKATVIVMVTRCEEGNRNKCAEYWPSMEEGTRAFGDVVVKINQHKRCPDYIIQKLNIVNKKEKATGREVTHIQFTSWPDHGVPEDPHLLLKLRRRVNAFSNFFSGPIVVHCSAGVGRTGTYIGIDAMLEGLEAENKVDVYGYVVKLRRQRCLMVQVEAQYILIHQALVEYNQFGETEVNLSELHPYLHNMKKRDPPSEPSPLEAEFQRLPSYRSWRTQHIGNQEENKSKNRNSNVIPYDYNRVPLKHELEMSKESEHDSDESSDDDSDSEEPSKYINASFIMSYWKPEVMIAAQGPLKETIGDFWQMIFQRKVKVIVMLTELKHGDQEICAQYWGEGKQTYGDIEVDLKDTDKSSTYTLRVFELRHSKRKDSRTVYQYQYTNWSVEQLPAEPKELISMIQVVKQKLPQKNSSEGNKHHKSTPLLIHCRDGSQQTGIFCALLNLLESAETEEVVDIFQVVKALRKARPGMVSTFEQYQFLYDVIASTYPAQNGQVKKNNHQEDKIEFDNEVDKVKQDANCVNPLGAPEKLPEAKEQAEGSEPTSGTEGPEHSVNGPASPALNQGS

Consider `Oc1ccc(-c2ccc(-c3nnn[nH]3)cc2Cl)cc1C12CC3CC(CC(C3)C1)C2` [5-[3'-(1-adamantyl)-2-chloro-4'-hydroxy-4-biphenyl]-1H-tetrazole], for which the concentration for half-maximal inhibition (IC50) stood at 1200 nM.

As a reminder, the IC50 is the point on the concentration scale where inhibition reaches its midpoint. A low value points to higher potency.
